“Also recorded” adds a separate entry of the source.
Tested on: small intestine bioptic fragments of patients with untreated celiac disease
Assay: Organ culture of small intestine biopsies of untreated celiac patients (TUNEL, CD25)
Format: cell-based, human
Settings: 40 ug/ml, 24 hours organ culture
Method: The study was performed in a blind fashion. For this study a organ culture model of celiac, which is a widely used and validated to explore gluten toxicity and mucosal damage in celiac disease was utilized. For the purpose of this project small intestine bioptic fragments of patients with untreated celiac disease were used. Biopsies of untreated celiac patients are ideal to monitor aspects of mucosal damage including induction of epithelial apoptosis and increase of mucosal inflammation.
Twelve adult patients, who were diagnosed as potential untreated celiac patients, were enrolled. Their disease was confirmed by clinical signs, the presence of high titres of anti-tissue transglutaminase and histological analysis of small intestine biopsies.
Organ cultures were performed using standard methods described in Maiuri, L. et al, Gastroenterology 110, 1368-1378. (1996). Briefly a small biopsy fragment (around 1 mm×1 mm) was put on stainless steel mesh and cultured in medium supplemented with the different compounds for a period of 24 hours. The standard positive and negative controls used in studies involving celiac patients and in vitro challenge of biopsies were utilized. The positive control was 1 mg/ml of gliadin peptic-tryptic digest. The negative control was the medium alone. All the compounds to be tested were used at the final concentration of 40 ug/ml. […]
Antigen detection on frozen tissue sections was performed by immunohistochemistry as described in Maiuri, L. et al. Blockage of T-cell costimulation inhibits T-cell action in Celiac disease. […] At least 5 slides for each sample were blindly evaluated. […]
The total number of TUNEL+ enterocytes was referred as percentage of enterocytes. The total number of CD25+ cells in the lamina propria was determined within a standard reference area of 1 mm^2. The counts were performed at a microscope with a calibrated ocular graticule aligned parallel to the muscolaris mucosae and independently analysed by two observers; the results were compared afterwards.

## CC(=O)N[C@@H](CCC(N)=O)C(=O)O [N-acetyl-L-glutamine]
  Induction of epithelial apoptosis (TUNEL) and sub-epithelial inflammation (CD25): did not induce any effect
  Trophic effect on the biopsies of untreated celiac patients: clear trophic effect; also recorded: appears to improve the overall condition of the mucosa even compared to medium alone
Listed as N-acetyl-glutamine
  Trophic effect on the biopsies of untreated celiac patients: clear trophic effect
